In ChEMBL document CHEMBL1201862, “PubChem BioAssay data set” (2004):
Each block holds one molecule with its values, some of them ahead of it. Calls of active or inactive are those of the source.

Assays:
[1] = molecular target: Dual specificity protein kinase CLK1 (Homo sapiens, UniProt P49759); experiment: inhibition of human CLK1 activity – biochemical, cherry-picked samples, selectivity assay for Dyrk1A inhibitor project, dose response (AID 588811)
Caspase-6 = molecular target: T1, Caspase-6 (Homo sapiens, UniProt P55212); experiment: inhibition of CASP6 peptide cleavage – biochemical, VEID-R110 fluorescence, cherry-pick, dose response (AID 720632)
T1 sequence (P55212 whole entry): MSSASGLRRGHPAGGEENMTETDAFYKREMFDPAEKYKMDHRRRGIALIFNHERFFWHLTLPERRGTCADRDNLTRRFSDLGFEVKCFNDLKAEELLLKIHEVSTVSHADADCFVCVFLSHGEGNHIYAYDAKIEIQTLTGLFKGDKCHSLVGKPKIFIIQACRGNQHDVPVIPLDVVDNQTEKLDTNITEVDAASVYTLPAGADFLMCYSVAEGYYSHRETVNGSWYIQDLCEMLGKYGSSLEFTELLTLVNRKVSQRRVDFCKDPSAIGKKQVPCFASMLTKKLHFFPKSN

Keap1/Nrf2 = Keap1/Nrf2 (Homo sapiens, UniProt Q14145); experiment: disruptors of Keap1 binding to Nrf2 peptide – biochemical, fluorescence polarization, cherry-picked samples, dose response (AID 588683)
Caspase-7 = Caspase-7 (Homo sapiens, UniProt P55210); experiment: caspase-7 enzyme inhibition, selectivity check – biochemical, DEVD-R110 fluorescence, cherry-pick, selectivity assay for caspase-6 inhibitor project, dose response (AID 743295); format: functional
[2] = molecular target: Female germline-specific tumor suppressor gld-1 (Caenorhabditis elegans, UniProt Q17339); experiment: blockers of GLD-1/TGE RNA complex formation – biochemical, fluorescence polarization, C. elegans, dose response (AID 2802);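 also: fluorescence polarization of labeled TGE RNA bound by purified gld-1 protein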
Protein Rev = Protein Rev (Human immunodeficiency virus type 1 group M subtype B (isolate HXB2)(HIV-1), UniProt P04618); experiment: blockers of HIV Rev/RRE RNA complex – biochemical, fluorescence polarization, HIV-1, dose response (AID 434976); set-up: species or system Human immunodeficiency virus 1
Vero = experiment: viability of Vero cells under compound – cytotoxicity control for flavivirus capping enzyme inhibitors (AID 588742); format: functional; details: Chlorocebus sabaeus
Genome polyprotein = Genome polyprotein (dengue virus type 2, UniProt P29990); experiment: flavivirus cap methylation enzyme inhibition – biochemical, confirmation dose response, primary screen (AID 588689); format: functional
[3] = molecular target: Dual specificity tyrosine-phosphorylation-regulated kinase 1A (Rattus norvegicus, UniProt Q63470); format: biochemical, Homo sapiens
HeLa = experiment: ATP-based viability loss in HeLa cells – cell-based, CellTiter-Glo luminescence, cherry-pick samples, cytotoxicity control for MITF activator project, dose response (AID 540259); format: functional; details: Homo sapiens
[4] = molecular target: Beta-2 adrenergic receptor (Homo sapiens, UniProt P07550); experiment: ADRB2 activation measured by internalization – cell-based, FAP fluorogen, flow cytometry, cherry pick 1, dose response (AID 588763); format: functional
Beta-2 adrenergic receptor, sequence (P07550 whole entry): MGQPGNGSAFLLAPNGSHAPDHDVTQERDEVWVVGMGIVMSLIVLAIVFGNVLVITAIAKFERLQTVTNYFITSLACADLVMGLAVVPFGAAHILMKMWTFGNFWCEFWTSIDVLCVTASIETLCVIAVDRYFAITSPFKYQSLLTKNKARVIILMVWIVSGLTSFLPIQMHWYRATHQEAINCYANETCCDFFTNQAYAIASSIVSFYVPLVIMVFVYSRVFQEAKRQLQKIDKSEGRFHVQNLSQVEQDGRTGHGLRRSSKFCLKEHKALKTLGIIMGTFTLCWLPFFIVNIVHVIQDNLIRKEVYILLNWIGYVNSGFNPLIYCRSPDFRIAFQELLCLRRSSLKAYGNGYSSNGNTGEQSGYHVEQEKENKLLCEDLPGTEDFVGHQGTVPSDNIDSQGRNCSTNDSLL

Dual specificity protein kinase CLK1, sequence (P49759 whole entry): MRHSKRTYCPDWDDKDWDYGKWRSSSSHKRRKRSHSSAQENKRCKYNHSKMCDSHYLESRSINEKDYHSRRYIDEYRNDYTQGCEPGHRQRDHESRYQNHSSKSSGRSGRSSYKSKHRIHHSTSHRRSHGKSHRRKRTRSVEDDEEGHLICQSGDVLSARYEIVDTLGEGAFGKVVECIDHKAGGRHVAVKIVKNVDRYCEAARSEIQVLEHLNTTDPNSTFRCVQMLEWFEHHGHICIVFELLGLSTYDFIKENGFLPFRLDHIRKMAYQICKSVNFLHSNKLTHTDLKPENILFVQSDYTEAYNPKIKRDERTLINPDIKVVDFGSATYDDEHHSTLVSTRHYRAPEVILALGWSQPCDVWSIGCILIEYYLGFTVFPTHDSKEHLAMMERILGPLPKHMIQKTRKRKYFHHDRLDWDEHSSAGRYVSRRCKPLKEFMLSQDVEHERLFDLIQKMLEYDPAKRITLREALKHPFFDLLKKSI
Caspase-7, sequence (P55210 24-198 limits assumed): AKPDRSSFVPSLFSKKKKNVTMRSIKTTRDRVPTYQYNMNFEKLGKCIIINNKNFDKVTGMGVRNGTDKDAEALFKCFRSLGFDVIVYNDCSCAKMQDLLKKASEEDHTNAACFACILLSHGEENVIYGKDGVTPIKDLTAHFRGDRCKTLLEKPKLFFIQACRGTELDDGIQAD
Caspase-7, sequence (P55210 207-303 limits assumed): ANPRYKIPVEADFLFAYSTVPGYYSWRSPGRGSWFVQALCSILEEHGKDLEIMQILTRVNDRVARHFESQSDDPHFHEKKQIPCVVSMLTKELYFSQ
Protein Rev, sequence (P04618 whole entry): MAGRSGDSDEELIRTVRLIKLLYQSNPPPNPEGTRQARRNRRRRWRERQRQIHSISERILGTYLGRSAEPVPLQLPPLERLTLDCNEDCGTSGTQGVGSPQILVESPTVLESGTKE
Keap1/Nrf2, sequence (Q16236 whole entry): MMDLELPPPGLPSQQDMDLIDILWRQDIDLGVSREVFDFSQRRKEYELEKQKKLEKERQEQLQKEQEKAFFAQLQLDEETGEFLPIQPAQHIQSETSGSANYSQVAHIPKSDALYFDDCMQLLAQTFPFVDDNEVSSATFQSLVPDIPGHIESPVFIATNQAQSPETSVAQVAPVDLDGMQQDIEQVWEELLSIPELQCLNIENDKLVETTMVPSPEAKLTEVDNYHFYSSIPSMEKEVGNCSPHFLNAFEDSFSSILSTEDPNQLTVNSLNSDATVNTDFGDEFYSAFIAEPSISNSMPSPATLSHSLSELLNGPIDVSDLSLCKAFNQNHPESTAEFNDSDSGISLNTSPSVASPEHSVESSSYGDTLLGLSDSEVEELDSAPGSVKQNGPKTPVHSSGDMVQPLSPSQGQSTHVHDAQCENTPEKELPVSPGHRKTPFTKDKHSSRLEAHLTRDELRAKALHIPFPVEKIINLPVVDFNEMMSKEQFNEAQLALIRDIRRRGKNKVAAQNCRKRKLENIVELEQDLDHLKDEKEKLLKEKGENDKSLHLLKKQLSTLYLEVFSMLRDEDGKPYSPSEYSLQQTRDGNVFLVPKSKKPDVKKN
Keap1/Nrf2, sequence (Q14145 whole entry): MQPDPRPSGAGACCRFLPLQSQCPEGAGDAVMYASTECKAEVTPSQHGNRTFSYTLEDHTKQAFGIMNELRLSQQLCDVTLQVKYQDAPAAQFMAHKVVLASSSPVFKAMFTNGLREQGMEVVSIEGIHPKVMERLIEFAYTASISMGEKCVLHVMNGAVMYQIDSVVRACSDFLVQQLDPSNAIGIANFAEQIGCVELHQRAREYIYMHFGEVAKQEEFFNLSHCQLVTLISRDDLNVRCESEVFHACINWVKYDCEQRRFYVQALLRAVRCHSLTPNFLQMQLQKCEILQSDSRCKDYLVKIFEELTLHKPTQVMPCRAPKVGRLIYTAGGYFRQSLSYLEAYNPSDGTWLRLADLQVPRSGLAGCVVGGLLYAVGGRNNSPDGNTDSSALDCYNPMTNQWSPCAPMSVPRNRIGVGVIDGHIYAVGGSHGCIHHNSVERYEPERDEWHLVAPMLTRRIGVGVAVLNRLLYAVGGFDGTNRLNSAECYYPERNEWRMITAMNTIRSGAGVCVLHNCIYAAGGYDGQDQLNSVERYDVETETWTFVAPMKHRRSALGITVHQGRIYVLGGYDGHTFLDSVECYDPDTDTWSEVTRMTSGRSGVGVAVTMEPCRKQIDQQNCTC
Female germline-specific tumor suppressor gld-1, sequence (Q17339 whole entry): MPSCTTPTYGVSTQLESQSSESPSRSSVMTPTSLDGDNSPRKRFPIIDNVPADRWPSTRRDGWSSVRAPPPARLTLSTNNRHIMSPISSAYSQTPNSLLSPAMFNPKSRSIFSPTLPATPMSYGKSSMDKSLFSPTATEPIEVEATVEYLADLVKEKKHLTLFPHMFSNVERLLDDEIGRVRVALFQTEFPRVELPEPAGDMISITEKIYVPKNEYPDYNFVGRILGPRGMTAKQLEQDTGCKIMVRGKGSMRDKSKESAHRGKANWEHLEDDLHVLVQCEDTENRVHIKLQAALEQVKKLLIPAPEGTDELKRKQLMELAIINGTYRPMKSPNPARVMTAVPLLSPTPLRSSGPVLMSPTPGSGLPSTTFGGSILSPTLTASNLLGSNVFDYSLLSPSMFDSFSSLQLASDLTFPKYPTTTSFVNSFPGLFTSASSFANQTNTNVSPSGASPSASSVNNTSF
Genome polyprotein, sequence (P29990 2492-3391 limits assumed): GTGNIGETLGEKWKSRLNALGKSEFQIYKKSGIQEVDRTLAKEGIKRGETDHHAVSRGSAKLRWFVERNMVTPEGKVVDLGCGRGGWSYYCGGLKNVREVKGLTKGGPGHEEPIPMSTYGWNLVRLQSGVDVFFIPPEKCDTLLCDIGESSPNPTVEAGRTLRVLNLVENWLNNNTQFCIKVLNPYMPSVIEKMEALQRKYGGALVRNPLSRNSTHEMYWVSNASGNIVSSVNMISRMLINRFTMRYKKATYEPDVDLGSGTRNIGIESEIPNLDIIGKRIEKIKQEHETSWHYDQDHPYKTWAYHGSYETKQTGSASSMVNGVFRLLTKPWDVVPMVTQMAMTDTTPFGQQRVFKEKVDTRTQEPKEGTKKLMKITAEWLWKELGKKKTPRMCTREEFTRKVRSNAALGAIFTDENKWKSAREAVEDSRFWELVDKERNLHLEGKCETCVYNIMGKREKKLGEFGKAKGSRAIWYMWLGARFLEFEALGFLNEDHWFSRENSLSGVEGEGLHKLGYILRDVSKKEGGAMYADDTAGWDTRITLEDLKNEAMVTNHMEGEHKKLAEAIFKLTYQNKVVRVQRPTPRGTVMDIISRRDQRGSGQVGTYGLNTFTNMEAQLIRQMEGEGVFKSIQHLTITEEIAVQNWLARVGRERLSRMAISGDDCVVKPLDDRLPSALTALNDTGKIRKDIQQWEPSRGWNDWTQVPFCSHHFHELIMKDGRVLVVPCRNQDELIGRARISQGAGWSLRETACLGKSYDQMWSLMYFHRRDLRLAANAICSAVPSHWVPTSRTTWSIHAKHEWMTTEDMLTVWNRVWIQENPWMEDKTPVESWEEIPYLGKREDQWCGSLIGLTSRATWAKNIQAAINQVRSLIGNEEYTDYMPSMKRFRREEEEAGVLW

- AC50 [1]: 0.0049 µM (active)
SMILES: Brc1ccc(CNc2nccc(-c3ccc4c(c3)OCO4)n2)cc1Br

SMILES: Cc1oc2c(cc(NS(=O)(=O)c3ccc(C(C)C)cc3)c3ccccc32)c1C(=O)O
- AC50 (Caspase-6): 4 µM (active)
- AC50 (Keap1/Nrf2): 21.7 µM (active)
- AC50 (Caspase-7): > 70 µM (inactive)

SMILES: COc1cc(O)cc2cc3c(c(O)c12)C(=O)CC(C)(O)O3 (stereo unspecified)
- IC50 [2]: 2.96 µM (active)
- IC50 (Protein Rev): 16.2 µM (not active)
- CC50 (Vero): > 40 µM (active)
- IC50 (Genome polyprotein): 38.1 µM (active)
- AC50 [3]: 2.92 µM (active)

SMILES: c1ccc(Cc2cc(-c3ccccc3)on2)cc1
- AC50 (HeLa): 253 µM (active)

- EC50 [4]: 0.00816 µM (active)
SMILES: O=C(Cn1nc(-c2ccccc2)ccc1=O)Nc1ccc(NC(=O)c2ccccn2)cc1
